Data as given in patent US11014929B2, “Pyrazolopyrimidine compounds and uses thereof” (Incyte Corporation, priority 2016, dated 2021).
pKi: −log10 of the molar value.

Each molecule was assayed against HPK1 (Homo sapiens (Human), UniProt Q92918) (assay: HPK1 Kinase Binding Assay). Conditions: LanthaScreen tracer 222 binding, active HPK1, one hour incubation at 25° C.
Procedure: A stock solution of 1 mM test compound was prepared in DMSO. The compound plate was prepared by 3-fold and 11-point serial dilutions. 0.1 μL of the compound in DMSO was transferred from the compound plate to the white 384 well polystyrene plates. The assay buffer contained 50 mM HEPES, pH 7.5, 0.01% Tween-20, 5 mM MgCl2, 0.01% BSA, and 5 mM DTT. 5 μl of 4 nM active HPK1 (SignalChem M23-11G) prepared in the buffer was added to the plate. The enzyme concentration given was based on the given stock concentration reported by the vender. 5 μl of 18 nM tracer 222 (ThermoFisher PV6121) and 4 nM LanthaScreen Eu-Anti GST antibody (ThermoFisher PV5595) were added. After one hour incubation at 25° C., the plates were read on a PHERAstar FS plate reader (BMG Labtech). Ki values were determined.

HPK1, sequence (Q92918 1-346): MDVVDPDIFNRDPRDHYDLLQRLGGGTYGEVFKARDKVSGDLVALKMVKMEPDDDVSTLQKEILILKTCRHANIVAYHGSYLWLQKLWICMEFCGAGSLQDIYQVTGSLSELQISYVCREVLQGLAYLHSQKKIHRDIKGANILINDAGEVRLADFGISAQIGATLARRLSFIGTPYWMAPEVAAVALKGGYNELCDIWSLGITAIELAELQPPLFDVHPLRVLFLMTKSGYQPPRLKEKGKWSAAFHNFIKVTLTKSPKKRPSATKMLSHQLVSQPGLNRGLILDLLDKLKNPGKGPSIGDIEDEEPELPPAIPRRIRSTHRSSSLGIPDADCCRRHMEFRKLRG

pKi, ≥ 7.00:
CN1CCN(c2ncc(-c3n[nH]c4cnc(-c5c(F)cc6c(c5F)CNCC6)nc34)cn2)CC1 [Example 92, 6,8-Difluoro-7-(3-(2-(4-methylpiperazin-1-yl)pyrimidin-5-yl)-1H-pyrazolo[4,3-d]pyrimidin-5-yl)-1,2,3,4-tetrahydroisoquinoline]
COc1cccc(F)c1-c1ncc2[nH]nc(-c3ccc(N4CCCCC4)cc3)c2n1 [Example 40, 5-(2-Fluoro-6-methoxyphenyl)-3-(4-(piperidin-1-yl)phenyl)-1H-pyrazolo[4,3-d]pyrimidine]
COc1cccc(F)c1-c1ncc2[nH]nc(-c3ccc(N4CCN(C)CC4)cc3)c2n1 [Example 11, 5-(2-Fluoro-6-methoxyphenyl)-3-(4-(4-methylpiperazin-1-yl)phenyl)-1H-pyrazolo[4,3-d]pyrimidine]
CN1CCN(c2ccc(-c3n[nH]c4cnc(-c5c(F)ccc6c5CCCC6N)nc34)cc2)CC1 (stereo not drawn) [Example 121, 6-Fluoro-5-(3-(4-(4-methylpiperazin-1-yl)phenyl)-1H-pyrazolo[4,3-d]pyrimidin-5-yl)-1,2,3,4-tetrahydronaphthalen-1-amine]
CC(=O)N1CCN(c2ccc(-c3n[nH]c4cnc(-c5c(F)cc6c(c5C)CNCC6)nc34)cc2)CC1 [Example 108, 1-(4-(4-(5-(6-Fluoro-8-methyl-1,2,3,4-tetrahydroisoquinolin-7-yl)-1H-pyrazolo[4,3-d]pyrimidin-3-yl)phenyl)piperazin-1-yl)ethanone]
COc1cccc(F)c1-c1ncc2[nH]nc(-c3ccc(N4CCOCC4)cc3)c2n1 [Example 26, 4-(4-(5-(2-Fluoro-6-methoxyphenyl)-1H-pyrazolo[4,3-d]pyrimidin-3-yl)phenyl)morpholine]
Fc1cc2c(c(F)c1-c1ncc3[nH]nc(-c4ccc(N5CCOCC5)nc4)c3n1)CNCC2 [Example 98, 4-(5-(5-(6,8-Difluoro-1,2,3,4-tetrahydroisoquinolin-7-yl)-1H-pyrazolo[4,3-d]pyrimidin-3-yl)pyridin-2-yl)morpholine]
NC1CCCc2c1cc(F)c(-c1ncc3[nH]nc(-c4ccc(N5CCOCC5)nc4)c3n1)c2F (stereo not drawn) [Example 117, 5,7-Difluoro-6-(3-(6-morpholinopyridin-3-yl)-1H-pyrazolo[4,3-d]pyrimidin-5-yl)-1,2,3,4-tetrahydronaphthalen-1-amine]
Fc1cc2c(c(F)c1-c1ncc3[nH]nc(-c4ccc(OC(F)F)nc4)c3n1)CNCC2 [Example 97, 7-(3-(6-(Difluoromethoxy)pyridin-3-yl)-1H-pyrazolo[4,3-d]pyrimidin-5-yl)-6,8-difluoro-1,2,3,4-tetrahydroisoquinoline]
COc1cccc(F)c1-c1ncc2[nH]nc(-c3ccncc3)c2n1 [Example 15, 5-(2-Fluoro-6-methoxyphenyl)-3-(pyridin-4-yl)-1H-pyrazolo[4,3-d]pyrimidine]
CNC(C)c1cc(F)c(-c2ncc3[nH]nc(-c4cnn(C)c4)c3n2)c(F)c1 (stereo not drawn) [Example 85, 1-(3,5-Difluoro-4-(3-(1-methyl-1H-pyrazol-4-yl)-1H-pyrazolo[4,3-d]pyrimidin-5-yl)phenyl)-N-methylethanamine]
CNCc1cc(F)c(-c2ncc3[nH]nc(-c4ccc(N5CCN(CCO)CC5)cc4)c3n2)c(F)c1 [Example 73, 2-(4-(4-(5-(2,6-Difluoro-4-((methylamino)methyl)phenyl)-1H-pyrazolo[4,3-d]pyrimidin-3-yl)phenyl)piperazin-1-yl)ethanol]
COc1cccc(F)c1-c1ncc2[nH]nc(-c3ccnc(N4CCN(C)CC4)c3)c2n1 [Example 51, 5-(2-Fluoro-6-methoxyphenyl)-3-(2-(4-methylpiperazin-1-yl)pyridin-4-yl)-1H-pyrazolo[4,3-d]pyrimidine]
CNC1CCCc2c1cc(F)c(-c1ncc3[nH]nc(-c4ccc(N5CCOCC5)nc4)c3n1)c2F (stereo not drawn) [Example 116, 5,7-Difluoro-N-methyl-6-(3-(6-morpholinopyridin-3-yl)-1H-pyrazolo[4,3-d]pyrimidin-5-yl)-1,2,3,4-tetrahydronaphthalen-1-amine]
CN1CCN(c2ccc(-c3n[nH]c4cnc(-c5c(F)cc6c(c5F)CNCC6)nc34)cc2)CC1 [Example 99, 6,8-Difluoro-7-(3-(4-(4-methylpiperazin-1-yl)phenyl)-1H-pyrazolo[4,3-d]pyrimidin-5-yl)-1,2,3,4-tetrahydroisoquinoline]
CNCc1cc(F)c(-c2ncc3[nH]nc(-c4ccc(N5CCN(C(C)=O)CC5)nc4)c3n2)c(C(F)(F)F)c1 [Example 77, 1-(4-(5-(5-(2-Fluoro-4-((methylamino)methyl)-6-(trifluoromethyl)phenyl)-1H-pyrazolo[4,3-d]pyrimidin-3-yl)pyridin-2-yl)piperazin-1-yl)ethanone]
COc1cccc(F)c1-c1ncc2[nH]nc(-c3ccc(F)cc3)c2n1 [Example 36, 5-(2-Fluoro-6-methoxyphenyl)-3-(4-fluorophenyl)-1H-pyrazolo[4,3-d]pyrimidine]
COc1cccc(F)c1-c1ncc2[nH]nc(-c3ccc(N4CCOCC4)nc3)c2n1 [Example 53, 4-(5-(5-(2-Fluoro-6-methoxyphenyl)-1H-pyrazolo[4,3-d]pyrimidin-3-yl)pyridin-2-yl)morpholine]
COc1cccc(F)c1-c1ncc2[nH]nc(-c3cc(C)n[nH]3)c2n1 [Example 88, 5-(2-Fluoro-6-methoxyphenyl)-3-(3-methyl-1H-pyrazol-5-yl)-1H-pyrazolo[4,3-d]pyrimidine]
CCN(C)C(=O)N1CCN(c2ccc(-c3n[nH]c4cnc(-c5c(F)cc(CNC)cc5F)nc34)cn2)CC1 [Example 75, 4-(5-(5-(2,6-Difluoro-4-((methylamino)methyl)phenyl)-1H-pyrazolo[4,3-d]pyrimidin-3-yl)pyridin-2-yl)-N-ethyl-N-methylpiperazine-1-carboxamide]
COc1cccc(F)c1-c1ncc2[nH]nc(-c3ccc(CC#N)cc3)c2n1 [Example 34, 2-(4-(5-(2-Fluoro-6-methoxyphenyl)-1H-pyrazolo[4,3-d]pyrimidin-3-yl)phenyl)acetonitrile]
CNCc1cc(F)c(-c2ncc3[nH]nc(-c4ccc(N5CCCC(C)(CO)C5)nc4)c3n2)c(F)c1 (stereo not drawn) [Example 71, (1-(5-(5-(2,6-Difluoro-4-((methylamino)methyl)phenyl)-1H-pyrazolo[4,3-d]pyrimidin-3-yl)pyridin-2-yl)-3-methylpiperidin-3-yl)methanol]
COc1cccc(F)c1-c1ncc2[nH]nc(-c3ccc(C4CC4)cc3)c2n1 [Example 39, 3-(4-Cyclopropylphenyl)-5-(2-fluoro-6-methoxyphenyl)-1H-pyrazolo[4,3-d]pyrimidine]
CN1CCN(c2ccc(-c3n[nH]c4cnc(-c5c(F)cccc5Cl)nc34)cc2)CC1 [Example 4, 5-(2-Chloro-6-fluorophenyl)-3-(4-(4-methylpiperazin-1-yl)phenyl)-1H-pyrazolo[4,3-d]pyrimidine]
